# Reference: PubChem BioAssay (NCI)
#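 Briefly, cells in 96-well plates were exposed to five compound concentrations for 48 h, and endpoints were estimated by linear interpolation. GI50 = concentration required for 50% inhibition of growth. TGI marks complete inhibition of growth.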
# What was measured:
# Assay in all cases: NCI anticancer screen, dose series, 48 h
# [1] = tested on: M14 melanoma
# [2] = tested on: HS 578T breast
# [3] = tested on: A498 renal
# [4] = tested on: CCRF-CEM leukemia
# [5] = tested on: HCT-15 colon
# [6] = tested on: NCI-H226 lung
# [7] = tested on: MOLT-4 leukemia
# [8] = tested on: K-562 leukemia
# [9] = tested on: OVCAR-3 ovarian
# [10] = tested on: SNB-19 CNS
# [11] = tested on: HL-60(TB) leukemia
# [12] = tested on: LOX IMVI melanoma
# [13] = tested on: UACC-62 melanoma
# [14] = tested on: OVCAR-8 ovarian
# [15] = tested on: MCF7 breast
# [16] = tested on: RPMI-8226 leukemia
# [17] = tested on: HCT-116 colon
# [18] = tested on: SNB-75 CNS
# [19] = tested on: PC-3 prostate
# [20] = tested on: ACHN renal
# [21] = tested on: COLO 205 colon
# [22] = tested on: TK-10 renal
# [23] = tested on: U251 CNS
# [24] = tested on: SR leukemia
# [25] = tested on: A549 NSCLC
# [26] = tested on: NCI-H522 lung
# [27] = tested on: MDA-MB-231 breast
# [28] = tested on: IGROV1 ovarian
# [29] = tested on: T-47D breast
# [30] = tested on: DU-145 prostate
# [31] = tested on: SN12C renal
# [32] = tested on: 786-0 renal
# [33] = tested on: NCI/ADR-RES ovarian
# [34] = tested on: RXF 393 renal
# [35] = tested on: KM12 colon
# [36] = tested on: BT-549 breast
# [37] = tested on: NCI-H23 lung
# [38] = tested on: SF-539 CNS
# [39] = tested on: SK-MEL-28 melanoma
# [40] = tested on: UO-31 renal
# [41] = tested on: UACC-257 melanoma
# [42] = tested on: SF-295 CNS
# [43] = tested on: SK-OV-3 ovarian
# [44] = tested on: NCI-H460 lung
# [45] = tested on: MALME-3M melanoma
# [46] = tested on: HOP-62 NSCLC
# [47] = tested on: SK-MEL-2 melanoma
# [48] = tested on: CAKI-1 renal
# [49] = tested on: OVCAR-5 ovarian
# [50] = tested on: SK-MEL-5 melanoma
# [51] = tested on: HCC-2998 colon
# [52] = tested on: SF-268 CNS
# [53] = tested on: HOP-92 NSCLC
# [54] = tested on: OVCAR-4 ovarian
# [55] = tested on: EKVX NSCLC
# [56] = tested on: SW-620 colon
# [57] = tested on: MDA-MB-435
# [58] = tested on: HT29 colon
structure (smiles),measurement,setting,value
C=C(C)[C@@H]1CC[C@]2(C(=O)NCCNCCNCCN)CC[C@]3(C)[C@H](CC[C@@H]4[C@@]5(C)CCC(=O)C(C)(C)[C@@H]5CC[C@]43C)[C@@H]12,GI50,[1],8.38 µM
same,TGI,[1],19 µM
same,GI50,[2],8.3 µM
same,TGI,[2],19.2 µM
same,GI50,[3],42.6 µM
same,TGI,[3],> 50 µM
same,GI50,[4],9.65 µM
same,TGI,[4],27.8 µM
same,GI50,[5],7.65 µM
same,TGI,[5],15.7 µM
same,GI50,[6],7.74 µM
same,TGI,[6],17.1 µM
same,GI50,[7],6.96 µM
same,TGI,[7],31.1 µM
same,GI50,[8],8.2 µM
same,TGI,[8],21.8 µM
same,GI50,[9],7.65 µM
same,TGI,[9],15 µM
same,GI50,[10],8.5 µM
same,TGI,[10],18.1 µM
same,GI50,[11],8.88 µM
same,TGI,[11],19 µM
same,GI50,[12],8.72 µM
same,TGI,[12],16.6 µM
same,GI50,[13],8.96 µM
same,TGI,[13],19.1 µM
same,GI50,[14],8.41 µM
same,TGI,[14],16.2 µM
same,GI50,[15],7.38 µM
same,TGI,[15],15.5 µM
same,GI50,[16],6.78 µM
same,TGI,[16],22 µM
same,GI50,[17],6.65 µM
same,TGI,[17],14.9 µM
same,GI50,[18],6.25 µM
same,TGI,[18],14.1 µM
same,GI50,[19],6.26 µM
same,TGI,[19],13.1 µM
same,GI50,[20],13.8 µM
same,TGI,[20],> 50 µM
same,GI50,[21],8.74 µM
same,TGI,[21],19 µM
same,GI50,[22],10.1 µM
same,TGI,[22],19.7 µM
same,GI50,[23],7.34 µM
same,TGI,[23],14.6 µM
same,GI50,[24],5.91 µM
same,TGI,[24],20.1 µM
same,GI50,[25],7.69 µM
same,TGI,[25],15.9 µM
same,GI50,[26],8.72 µM
same,TGI,[26],18.5 µM
same,GI50,[27],8.04 µM
same,TGI,[27],15.8 µM
same,GI50,[28],6.42 µM
same,TGI,[28],14.4 µM
same,GI50,[29],7.52 µM
same,TGI,[29],18.7 µM
same,GI50,[30],7.47 µM
same,TGI,[30],14.1 µM
same,GI50,[31],7.56 µM
same,TGI,[31],15.3 µM
same,GI50,[32],7.8 µM
same,TGI,[32],15.8 µM
same,GI50,[33],8.41 µM
same,TGI,[33],16.6 µM
same,GI50,[34],5.6 µM
same,TGI,[34],12.5 µM
same,GI50,[35],8.47 µM
same,TGI,[35],16.6 µM
same,GI50,[36],8.91 µM
same,TGI,[36],22.2 µM
same,GI50,[37],9.14 µM
same,TGI,[37],17.4 µM
same,GI50,[38],7.53 µM
same,TGI,[38],14.6 µM
same,GI50,[39],8.5 µM
same,TGI,[39],17 µM
same,GI50,[40],6.85 µM
same,TGI,[40],14.5 µM
same,GI50,[41],7.91 µM
same,TGI,[41],18.3 µM
same,GI50,[42],9.42 µM
same,TGI,[42],18.3 µM
same,GI50,[43],10.6 µM
same,TGI,[43],25.9 µM
same,GI50,[44],9.4 µM
same,TGI,[44],18.1 µM
same,GI50,[45],7.4 µM
same,TGI,[45],16.5 µM
same,GI50,[46],7.91 µM
same,TGI,[46],16.6 µM
same,GI50,[47],> 50 µM
same,TGI,[47],> 50 µM
same,GI50,[48],5.87 µM
same,TGI,[48],13.1 µM
same,GI50,[49],8.78 µM
same,TGI,[49],18.4 µM
same,GI50,[50],6.99 µM
same,TGI,[50],13.5 µM
same,GI50,[51],7.16 µM
same,TGI,[51],14.8 µM
same,GI50,[52],7.53 µM
same,TGI,[52],15.9 µM
same,GI50,[53],2.93 µM
same,TGI,[53],10.3 µM
same,GI50,[54],7.39 µM
same,TGI,[54],15.3 µM
same,GI50,[55],7.34 µM
same,TGI,[55],14 µM
same,GI50,[56],7.91 µM
same,TGI,[56],16.6 µM
same,GI50,[57],8.7 µM
same,TGI,[57],17.5 µM
same,GI50,[58],7.17 µM
same,TGI,[58],14.6 µM
